Drawing on PubChem BioAssay (NCI), this text covers TGI and GI50 for twelve compounds.

What all share (experiment): NCI tumour cell line growth inhibition, 48 h
In assay [1] the test system is BT-549 breast.
In assay [2] the test system is HOP-92 NSCLC.
Assay [3] concerns NCI-H522 lung.
Assay [4] deals with NCI/ADR-RES ovarian.
Assay [5] relates to SF-539 CNS.
Assay [6] relates to OVCAR-8 ovarian.
Assay [7] relates to MDA-MB-231 breast.
The subject of assay [8] is CCRF-CEM leukemia.
The test system of assay [9] is HT29 colon.
For assay [10], the system named is MDA-N.

Each structure is given as a SMILES string.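 Interpolation was linear, between the two tested concentrations surrounding the appropriate level; five concentrations were tested over 48 hours in 96-well plates. The concentration for 50% growth inhibition is given as GI50. TGI denotes the concentration required for complete inhibition of growth.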 A value given as a limit tells only on which side of the number the result lay.

Turning to `CSc1nnnc2ccccc12`, the TGI in [1], in assay [2], in [3], in assay [4], in [5] and in [6] was over 100 µM throughout. Besides, the TGI in [7], in assay [8], in assay [9] and in assay [10] was over 100 µM in each case.
In the case of `CCOC(=O)c1ccc2nc3n(c2c1)C(c1c(F)cccc1F)SC3` (stereo not given), the TGI in assay [1], in [2], in assay [4], in assay [5], in assay [6] and in assay [7] was over 100 µM in each case. For the same compound, the TGI in [8], in assay [9] and in assay [10] was over 100 µM each time.
With `O=C1CCCC1CC(CN1CCOCC1)Sc1nnnn1-c1ccccc1` (stereo not given), the TGI in [1], in assay [2], in assay [3], in [4], in assay [5] and in assay [6] was over 100 µM in each case. In addition, the TGI in [7], in [8], in assay [9] and in assay [10] was over 100 µM in each case.
Turning to `Cc1ccc(/C=c2\c(=O)[nH]c3nc4ccccc4c(=O)n23)cc1`, the TGI in assay [1] was 60.3 µM; in assay [2] it was over 100 µM; in [3], over 100 µM; in assay [4], over 100 µM; in assay [5], 43.7 µM; in assay [6] it was over 100 µM. Besides, the TGI in assay [7] was over 100 µM; in [8] it was over 100 µM; in assay [10] it was 62.2 µM.
Turning to `CC1(C)CCC2=C(O1)c1ccccc1C(=Nc1ccc([N+](=O)[O-])cc1)C2=O`, the TGI is 44 µM in [1]; over 100 µM in [2]; 30.1 µM in assay [3]; over 100 µM in [4]; over 100 µM in assay [6]; 43.2 µM in assay [7]. In addition, the TGI was 46.7 µM in assay [8], 25.2 µM in [9] and 28.1 µM in assay [10]. In addition, the GI50 in [8] was 19.6 µM.
With `O=S(=O)(O)c1ccc(O)c(N=Nc2c(O)ccc3ccccc23)c1`, the TGI in assay [1], in assay [2], in assay [3], in [4], in [6] and in assay [7] was over 100 µM throughout. The TGI in [8] was 86.9 µM; in [9] it was over 100 µM; in assay [10], over 100 µM.
For `CCOC(=O)c1sc2nc(SC)nc3c2c1NCN3C`, the TGI in assay [1] is over 100 µM; in assay [2], 27.9 µM; in assay [4], over 100 µM; in assay [6], 25.9 µM; in [7], 92.5 µM; in assay [8] it was over 100 µM. Besides, the TGI in [9] and in assay [10] was over 100 µM in each case.
Regarding `O=C(O)C(Cc1ccccc1)Cc1ccccc1`, the TGI in assay [1], in [3], in assay [4], in assay [5], in assay [6] and in assay [7] was over 100 µM each time. For the same compound, the TGI in assay [8], in assay [9] and in assay [10] was over 100 µM each time.
As for `COc1ccc(C2N(c3ccc(C)c(N=C=O)c3)C(=O)N3C(c4ccc(OC)cc4)N(c4ccc(C)c(N=C=O)c4)C(=O)N23)cc1` (stereo not given), the TGI in assay [1], in assay [2], in assay [4], in [5], in [6] and in assay [7] was over 100 µM each time. Besides, the TGI in [8], in assay [9] and in assay [10] was over 100 µM in each case.
As to `NS(=O)(=O)c1ccc(-c2ccc([As](=O)(O)O)cc2)cc1`, the TGI in assay [1], in assay [2], in assay [3], in assay [4], in [5] and in [6] was over 100 µM each time. Besides, the TGI in [7], in assay [9] and in assay [10] was over 100 µM each time.
With `Cc1cc(N(CCC#N)CCC#N)ccc1/C(N=Nc1ccc(C(=O)O)cc1)=N\NC(=O)c1ccccc1`, the TGI in assay [1] is over 100 µM; in assay [3], 38.5 µM; in assay [4], over 100 µM; in assay [5], 57 µM; in [6], over 100 µM; in assay [7] it was over 100 µM. The TGI in [8] was over 100 µM; in assay [9] it was 41.2 µM; in assay [10] it was over 100 µM.
Take `COc1cc2c3c(n(C)c(=O)c2cc1OC)-c1cc2c(cc1/C3=C\CCCCl)OCO2`: the TGI in assay [1], in assay [2], in assay [3], in assay [4], in assay [6] and in [7] was over 100 µM in each case. Further, the TGI in assay [8], in assay [9] and in [10] was over 100 µM in each case.
